The supplement of paper PMC10307832

Experiments:
Test in all cases: relative viability (nuclei count vs DMSO), 5 days (fraction); higher = more cells survive
[1] = test system: NCI-H2087
Method in brief: (§1)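 A single step with final 0.05% Triton X-100, 1% formaldehyde and 1 ug/ml Hoechst fixed the cells and stained nuclei 5 days after treatment. Lung cancer cell lines in 1536-well plates had been treated by pin tool the day after seeding with one drug alone or a fixed anchor-drug dose plus five library-drug doses (not always all listed) in √10 steps, and nuclei were counted on 4× images. Relative viability is the ratio of nuclei in treated wells to nuclei in vehicle wells, taken as the median of duplicate plates.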

[2] = test system: LU99A
Method in brief: as §1

[3] = test system: NCI-H838
Method in brief: as §1

[4] = test system: HCC-827
Method in brief: as §1

[5] = test system: LCLC-103H
Method in brief: as §1

[6] = test system: SK-MES-1
Method in brief: as §1

[7] = test system: NCI-H1651
Method in brief: as §1

[8] = test system: EPLC-272H
Method in brief: as §1

[9] = test system: NCI-H1793
Method in brief: as §1

[10] = test system: NCI-H1395
Method in brief: as §1

[11] = test system: EMC-BAC-2
Method in brief: as §1

[12] = test system: NCI-H1944
Method in brief: as §1

[13] = test system: COR-L23
Method in brief: as §1

[14] = test system: NCI-H2023
Method in brief: as §1

[15] = test system: HCC-44
Method in brief: as §1

[16] = test system: NCI-H1563
Method in brief: as §1

[17] = test system: NCI-H2085
Method in brief: as §1

[18] = test system: NCI-H2405
Method in brief: as §1

[19] = test system: H3255
Method in brief: as §1

[20] = test system: NCI-H520
Method in brief: as §1

[21] = test system: NCI-H650
Method in brief: as §1

[22] = test system: ChaGo-K-1
Method in brief: as §1

With `O=c1cc(N2CCOCC2)oc2c(-c3cccc4c3sc3ccccc34)cccc12` + Nc1nc2[nH]cc(CCc3ccc(C(=O)N[C@@H](CCC(=O)O)C(=O)O)cc3)c2c(=O)[nH]1 [Pemetrexed] (partner 0.2 µM) the relative viability ([1]; first compound 0.01 µM) was 0.665, the relative viability ([1]; first compound 0.03162 µM) was 0.633 and the relative viability ([1]; first compound 0.1 µM) was 0.693. For the same compound, the relative viability ([1]; first compound 0.3162 µM) was 0.662, the relative viability ([1]; first compound 1 µM) was 0.651 and the relative viability ([2]; first compound 0.01 µM) was 0.177. The relative viability ([2]; first compound 0.03162 µM) was 0.195, the relative viability ([2]; first compound 0.1 µM) was 0.139 and the relative viability ([2]; first compound 0.3162 µM) was 0.19. For the same compound, the relative viability ([2]; first compound 1 µM) was 0.176, the relative viability ([3]; first compound 0.01 µM) was 0.255 and the relative viability ([3]; first compound 0.03162 µM) was 0.237. For the same compound, the relative viability ([3]; first compound 0.1 µM) was 0.241, the relative viability ([3]; first compound 0.3162 µM) was 0.227 and the relative viability ([3]; first compound 1 µM) was 0.26. The relative viability ([4]; first compound 0.01 µM) was 0.264, the relative viability ([4]; first compound 0.03162 µM) was 0.254 and the relative viability ([4]; first compound 0.1 µM) was 0.295. It also gave a relative viability ([4]; first compound 0.3162 µM) of 0.271, a relative viability ([4]; first compound 1 µM) of 0.3 and a relative viability ([5]; first compound 0.01 µM) of 0.44. The relative viability ([5]; first compound 0.03162 µM) was 0.503, the relative viability ([5]; first compound 0.1 µM) was 0.485 and the relative viability ([5]; first compound 0.3162 µM) was 0.465. It also gave a relative viability ([5]; first compound 1 µM) of 0.457, a relative viability ([6]; first compound 0.01 µM) of 0.868 and a relative viability ([6]; first compound 0.03162 µM) of 0.943. For the same compound, the relative viability ([6]; first compound 0.1 µM) was 0.906, the relative viability ([6]; first compound 0.3162 µM) was 0.821 and the relative viability ([6]; first compound 1 µM) was 0.91. The relative viability ([7]; first compound 0.01 µM) was 0.547, the relative viability ([7]; first compound 0.03162 µM) was 0.564 and the relative viability ([7]; first compound 0.1 µM) was 0.569. It also gave a relative viability ([7]; first compound 0.3162 µM) of 0.552, a relative viability ([7]; first compound 1 µM) of 0.578 and a relative viability ([8]; first compound 0.01 µM) of 0.344. It also gave a relative viability ([8]; first compound 0.03162 µM) of 0.361, a relative viability ([8]; first compound 0.1 µM) of 0.334 and a relative viability ([8]; first compound 0.3162 µM) of 0.368. It also gave a relative viability ([8]; first compound 1 µM) of 0.442, a relative viability ([9]; first compound 0.01 µM) of 0.776 and a relative viability ([9]; first compound 0.03162 µM) of 0.728. The relative viability ([9]; first compound 0.1 µM) was 1.01, the relative viability ([9]; first compound 0.3162 µM) was 0.961 and the relative viability ([9]; first compound 1 µM) was 0.74. The relative viability ([10]; first compound 0.03162 µM) was 0.908, the relative viability ([10]; first compound 0.1 µM) was 0.909 and the relative viability ([10]; first compound 0.3162 µM) was 1.01. It also gave a relative viability ([10]; first compound 1 µM) of 0.855, a relative viability ([11]; first compound 0.01 µM) of 0.459 and a relative viability ([11]; first compound 0.03162 µM) of 0.43. The relative viability ([11]; first compound 0.1 µM) was 0.457, the relative viability ([11]; first compound 0.3162 µM) was 0.477 and the relative viability ([11]; first compound 1 µM) was 0.456. It also gave a relative viability ([12]; first compound 0.01 µM) of 0.691, a relative viability ([12]; first compound 0.03162 µM) of 0.674 and a relative viability ([12]; first compound 0.1 µM) of 0.624. The relative viability ([12]; first compound 0.3162 µM) was 0.589, the relative viability ([12]; first compound 1 µM) was 0.635 and the relative viability ([13]; first compound 0.01 µM) was 0.189. It also gave a relative viability ([13]; first compound 0.03162 µM) of 0.204, a relative viability ([13]; first compound 0.1 µM) of 0.203 and a relative viability ([13]; first compound 0.3162 µM) of 0.201. For the same compound, the relative viability ([13]; first compound 1 µM) was 0.204, the relative viability ([14]; first compound 0.01 µM) was 0.284 and the relative viability ([14]; first compound 0.03162 µM) was 0.276. For the same compound, the relative viability ([14]; first compound 0.1 µM) was 0.227, the relative viability ([14]; first compound 0.3162 µM) was 0.249 and the relative viability ([14]; first compound 1 µM) was 0.161. The relative viability ([15]; first compound 0.01 µM) was 0.667, the relative viability ([15]; first compound 0.03162 µM) was 0.643 and the relative viability ([15]; first compound 0.1 µM) was 0.587. For the same compound, the relative viability ([15]; first compound 0.3162 µM) was 0.591, the relative viability ([15]; first compound 1 µM) was 0.664 and the relative viability ([16]; first compound 0.01 µM) was 0.863. The relative viability ([16]; first compound 0.03162 µM) was 0.778, the relative viability ([16]; first compound 0.1 µM) was 0.761 and the relative viability ([16]; first compound 0.3162 µM) was 0.767. For the same compound, the relative viability ([16]; first compound 1 µM) was 0.641, the relative viability ([17]; first compound 0.01 µM) was 0.905 and the relative viability ([17]; first compound 0.03162 µM) was 0.851. It also gave a relative viability ([17]; first compound 0.1 µM) of 0.849, a relative viability ([17]; first compound 0.3162 µM) of 0.865 and a relative viability ([17]; first compound 1 µM) of 0.867. It also gave a relative viability ([18]; first compound 0.01 µM) of 1.02, a relative viability ([18]; first compound 0.03162 µM) of 1.18 and a relative viability ([18]; first compound 0.1 µM) of 0.943. It also gave a relative viability ([18]; first compound 0.3162 µM) of 1.11, a relative viability ([18]; first compound 1 µM) of 1.09 and a relative viability ([19]; first compound 0.01 µM) of 0.552. The relative viability ([19]; first compound 0.03162 µM) was 0.617, the relative viability ([19]; first compound 0.1 µM) was 0.531 and the relative viability ([19]; first compound 0.3162 µM) was 0.585. For the same compound, the relative viability ([19]; first compound 1 µM) was 0.553, the relative viability ([20]; first compound 0.01 µM) was 0.646 and the relative viability ([20]; first compound 0.03162 µM) was 0.657. The relative viability ([20]; first compound 0.1 µM) was 0.772, the relative viability ([20]; first compound 0.3162 µM) was 0.623 and the relative viability ([20]; first compound 1 µM) was 0.659. The relative viability ([21]; first compound 0.01 µM) was 0.764, the relative viability ([21]; first compound 0.03162 µM) was 1.08 and the relative viability ([21]; first compound 0.3162 µM) was 0.85. The relative viability ([21]; first compound 1 µM) was 0.786, the relative viability ([22]; first compound 0.01 µM) was 0.267 and the relative viability ([22]; first compound 0.03162 µM) was 0.249. The relative viability ([22]; first compound 0.1 µM) was 0.247, the relative viability ([22]; first compound 0.3162 µM) was 0.259 and the relative viability ([22]; first compound 1 µM) was 0.286.
